This series concerns the target T1, PDE10A (Rattus norvegicus, UniProt Q9QYJ6).
T1 construct: from tissue; host or cells: brain (striatum) of living male Wistar rats, in vivo microPET
T1 sequence (Q9QYJ6 1-794): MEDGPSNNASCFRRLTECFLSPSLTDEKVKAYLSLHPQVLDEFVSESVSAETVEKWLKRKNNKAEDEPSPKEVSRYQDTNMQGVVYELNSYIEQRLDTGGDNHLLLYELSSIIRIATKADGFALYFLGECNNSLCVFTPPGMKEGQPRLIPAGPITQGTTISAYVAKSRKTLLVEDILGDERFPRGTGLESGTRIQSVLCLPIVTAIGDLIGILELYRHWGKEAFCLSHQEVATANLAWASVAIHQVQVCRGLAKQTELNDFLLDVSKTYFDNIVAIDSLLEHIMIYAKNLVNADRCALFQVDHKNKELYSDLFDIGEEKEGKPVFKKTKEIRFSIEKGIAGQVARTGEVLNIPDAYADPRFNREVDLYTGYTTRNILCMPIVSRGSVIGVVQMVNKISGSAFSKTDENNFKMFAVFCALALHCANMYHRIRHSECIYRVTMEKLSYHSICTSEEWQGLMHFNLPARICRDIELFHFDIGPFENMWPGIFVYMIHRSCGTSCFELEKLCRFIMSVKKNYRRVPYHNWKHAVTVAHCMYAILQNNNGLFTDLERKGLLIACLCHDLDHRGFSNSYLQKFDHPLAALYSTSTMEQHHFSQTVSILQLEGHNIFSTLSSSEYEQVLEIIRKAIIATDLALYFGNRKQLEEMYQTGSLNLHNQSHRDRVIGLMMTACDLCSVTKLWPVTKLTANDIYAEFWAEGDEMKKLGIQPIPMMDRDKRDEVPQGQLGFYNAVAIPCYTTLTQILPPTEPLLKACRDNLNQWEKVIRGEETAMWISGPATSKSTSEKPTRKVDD
The experiment in a line: microPET imaging study. It counts as in vivo. As for the experimental part: (§1) Imaging experiments were performed on a Focus™ 220 microPET scanner (Concorde Microsystems, Knoxville, Tenn., USA) using male Wistar rats with body weight between 200 and 300 g. Animals were injected with about 74 MBq of high specific activity formulation of [^18F]B-1 via tail vein under anesthesia (2.5% Isoflurane in O2 at 1 L/min flow rate). Dynamic scans of 90 min were acquired in List mode. Acquisition data were Fourier rebinned in different time frames (4×15 s, 4×1 min, 5×3 min, 14×5 min) and reconstructed with Filtered Back Projection (FBP). An average image (frame 1 to 27) of the reconstructed data was spatially normalized to an in-house created [^11C]raclopride template of the rat brain in Paxinos coordinates. The affine transformation was then used to normalize all time frames of the dynamic dataset to allow automated and symmetric volumes of interest (VOIs) analyses. Time-activity curves (TAC) were generated for striatum, cortex and cerebellum for each individual scan, using PMOD software (v 3.0, PMOD Technologies Ltd., Zurich, Switzerland). The radioactivity concentration in the different brain regions was expressed as standardized uptake value (SUV) as a function of time p.i. of the radiotracer by normalization for body weight of the animal and injected dose. Since PDE10A is expressed at low level in the cerebellum, binding potential (BP) values were calculated using the multilinear reference tissue model developed by Ichise et al. with the cerebellum considered as reference, using the same software (PMOD). Rats (n=5) were used for baseline imaging of which 3 animals were used in pretreatment studies in which the non-radioactive analogue B-1 was administered subcutaneously at a dose of 5 mg/kg at 30 min prior to the radiotracer injection.
Imaging experiments were performed on a Focus™ 220 microPET scanner (Concorde Microsystems, Knoxville, Tenn., USA) using male Wistar rats with body weight between 350 and 480 g. For the baseline microPET study, rats (n=2) were injected with about 74 MBq of high specific activity formulation of [^18F]B-2 via tail vein under anesthesia (2.5% Isoflurane in O2 at 1 L/min flow rate). For the pretreatment experiment, the radioactivity dose was reduced to about 37 MBq. Pretreatment was done by administering the non-radioactive analogue B-2 subcutaneously at a dose of 2.5 mg/kg at 60 min prior to the tracer injection (n=1).
as §1, with “Dynamic” for “Imaging experiments were performed on a Focus™ 220 microPET scanner (Concorde Microsystems, Knoxville, Tenn., USA) using male Wistar rats with body weight between 200 and 300 g. Animals were injected with about 74 MBq of high specific activity formulation of [^18F]B-1 via tail vein under anesthesia (2.5% Isoflurane in O2 at 1 L/min flow rate). Dynamic”, “120” for “90”, “8×5 min, 10×6” for “14×5”, “31)” for “27)”, “(PMOD).” for “(PMOD). Rats (n=5) were used for baseline imaging of which 3 animals were used in pretreatment studies in which the non-radioactive analogue B-1 was administered subcutaneously at a dose of 5 mg/kg at 30 min prior to the radiotracer injection.”

The structures appear in SMILES notation.

Consider `[18F]CCCn1cc(-c2ccncc2)c(-c2ccc(OCc3ccc4ccccc4n3)cc2)n1` [[^18F]B-1], for which the “binding potential (BP) value after non-radioactive analogue” value (B-1, 5 mg/kg s.c., 30 min prior to tracer) was 0.11±0.10. The “time at which peak tissue concentrations in the brain were reached” value (baseline) was “within one minute”. Further, where the note is “baseline, at 15 min post injection”, the Peak striatum-to-cerebellum ratio was determined as 2.7. Also, the striatum-to-cerebellum ratio result (baseline, until about 35 min post injection) is “higher than 2.5”. The “binding potential (BP) value at baseline” value (baseline, cerebellum as reference) was 0.58±0.17. The “reduction in BP values with pretreatment compared to baseline” value (non-radioactive B-1, 5 mg/kg s.c., 30 min prior) is on record as “about 80%”. The “striatum-to-cerebellum ratio after pre-treatment” value (pre-treated with non-radioactive B-1, 5 mg/kg s.c., 30 min prior) worked out at 1.5.

The record behind these values is patent publication US20110305637A1, “RADIOLABELLED PDE10 LIGANDS” (Janssen Pharmaceutica N.V., priority 2009, published 2011).
